Experimental data published in patent publication US20210267201A1, “HERBICIDAL MIXTURES COMPRISING ISOXAFLUTOLE, DIMETHENAMID OR DIMETHENAMID-P AND AN IMIDAZOLINONE HERBICIDE; AND THEIR USE IN SOYBEAN AND COTTON CULTURES” (BASF SE, priority 2018, published 2021).

Test system: AVEFA (Avena fatua, wild oat)
Test: greenhouse experiment: herbicidal action, scale from 0 to 100, synergism by Colby's equation
Type: in vivo
Conditions: scale 0 to 100, test period 20 days
Protocol: However, the weed control afforded by the compounds, mixtures or compositions is not limited to these species. The analysis of synergism or antagonism between the mixtures or compositions is determined using Colby's equation.
Synergism can be described as an interaction where the combined effect of two or more compounds is greater than the sum of the individual effects of each of the compounds. The presence of a synergistic effect in terms of percent control, between two mixing partners (X and Y) can be calculated using the Colby equation (Colby, S. R., 1967, Calculating Synergistic and Antagonistic Responses in Herbicide Combinations, Weeds, 15, 21-22):
When the observed combined control effect is greater than the expected (calculated) combined control effect (E), then the combined effect is synergistic.
The culture containers used were plastic flowerpots containing loamy sand with approximately 3.0% of humus as the substrate. The seeds of the test plants were sown separately for each species. For pre-emergence treatment, the active ingredients, which had been suspended or emulsified in water, were applied directly after sowing by means of finely distributing nozzles. […] During this time, the plants were tended, and their response to the individual treatments was evaluated. […]

CS(=O)(=O)c1cc(C(F)(F)F)ccc1C(=O)c1cnoc1C1CC1 [Isoxaflutole, isoxaflutole]
Herbicidal action against AVEFA, Found (Isoxaflutole 12.5 g/ha alone): 0 | Herbicidal action against AVEFA, Found (Isoxaflutole 25 g/ha alone): 0
